# Laboratory results: ChEMBL document CHEMBL1938312, “Design and combinatorial synthesis of a novel kinase-focused library using click chemistry-based fragment assembly” (Bioorg Med Chem Lett, 2012)
# Activity calls are given as the source filed them. The rule behind the calls is not given here.
# Assays:
# [1] = biological target: Tyrosine-protein kinase CSK (Homo sapiens) (UniProt P41240); assay: Inhibition of CSK at 10 uM by colorimetric analysis
# [2] = biological target: Protein-tyrosine kinase 2-beta (Homo sapiens) (UniProt Q14289); assay: Inhibition of PYK2 at 10 uM by colorimetric analysis
# [3] = biological target: T1, Tyrosine-protein kinase JAK3 (Homo sapiens) (UniProt P52333); assay: Inhibition of JAK3 at 10 uM by colorimetric analysis
# T1 sequence (whole entry): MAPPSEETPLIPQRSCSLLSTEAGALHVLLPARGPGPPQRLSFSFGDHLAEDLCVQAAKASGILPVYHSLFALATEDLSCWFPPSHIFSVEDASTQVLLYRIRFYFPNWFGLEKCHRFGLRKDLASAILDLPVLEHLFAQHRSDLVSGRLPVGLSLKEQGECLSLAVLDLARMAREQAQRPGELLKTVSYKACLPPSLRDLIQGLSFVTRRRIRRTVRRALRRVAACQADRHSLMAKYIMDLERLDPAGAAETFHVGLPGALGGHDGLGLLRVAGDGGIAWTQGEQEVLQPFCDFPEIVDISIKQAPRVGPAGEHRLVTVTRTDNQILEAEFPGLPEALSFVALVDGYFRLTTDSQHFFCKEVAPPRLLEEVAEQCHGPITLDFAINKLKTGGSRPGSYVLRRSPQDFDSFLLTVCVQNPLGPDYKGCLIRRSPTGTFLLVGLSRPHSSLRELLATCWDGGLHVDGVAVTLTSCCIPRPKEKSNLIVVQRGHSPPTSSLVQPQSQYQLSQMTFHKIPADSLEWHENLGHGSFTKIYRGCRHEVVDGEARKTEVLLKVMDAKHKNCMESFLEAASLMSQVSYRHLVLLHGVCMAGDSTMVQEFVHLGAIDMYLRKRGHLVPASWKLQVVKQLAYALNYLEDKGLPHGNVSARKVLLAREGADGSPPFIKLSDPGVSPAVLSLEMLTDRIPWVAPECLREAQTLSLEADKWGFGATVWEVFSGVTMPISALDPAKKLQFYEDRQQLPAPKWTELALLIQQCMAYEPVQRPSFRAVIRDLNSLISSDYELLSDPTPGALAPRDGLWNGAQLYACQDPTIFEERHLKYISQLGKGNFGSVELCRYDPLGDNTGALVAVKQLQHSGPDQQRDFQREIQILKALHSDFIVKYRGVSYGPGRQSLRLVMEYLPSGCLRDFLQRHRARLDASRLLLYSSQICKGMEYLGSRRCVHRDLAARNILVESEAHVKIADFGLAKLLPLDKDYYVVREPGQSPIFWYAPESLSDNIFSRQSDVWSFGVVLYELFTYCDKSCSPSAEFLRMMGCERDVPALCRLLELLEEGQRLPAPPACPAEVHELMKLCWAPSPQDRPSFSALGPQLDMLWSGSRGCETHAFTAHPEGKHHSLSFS
# [4] = biological target: T2, Ephrin type-B receptor 4 (Homo sapiens) (UniProt P54760); assay: Inhibition of EPHB4 at 10 uM by colorimetric analysis
# T2 sequence (whole entry): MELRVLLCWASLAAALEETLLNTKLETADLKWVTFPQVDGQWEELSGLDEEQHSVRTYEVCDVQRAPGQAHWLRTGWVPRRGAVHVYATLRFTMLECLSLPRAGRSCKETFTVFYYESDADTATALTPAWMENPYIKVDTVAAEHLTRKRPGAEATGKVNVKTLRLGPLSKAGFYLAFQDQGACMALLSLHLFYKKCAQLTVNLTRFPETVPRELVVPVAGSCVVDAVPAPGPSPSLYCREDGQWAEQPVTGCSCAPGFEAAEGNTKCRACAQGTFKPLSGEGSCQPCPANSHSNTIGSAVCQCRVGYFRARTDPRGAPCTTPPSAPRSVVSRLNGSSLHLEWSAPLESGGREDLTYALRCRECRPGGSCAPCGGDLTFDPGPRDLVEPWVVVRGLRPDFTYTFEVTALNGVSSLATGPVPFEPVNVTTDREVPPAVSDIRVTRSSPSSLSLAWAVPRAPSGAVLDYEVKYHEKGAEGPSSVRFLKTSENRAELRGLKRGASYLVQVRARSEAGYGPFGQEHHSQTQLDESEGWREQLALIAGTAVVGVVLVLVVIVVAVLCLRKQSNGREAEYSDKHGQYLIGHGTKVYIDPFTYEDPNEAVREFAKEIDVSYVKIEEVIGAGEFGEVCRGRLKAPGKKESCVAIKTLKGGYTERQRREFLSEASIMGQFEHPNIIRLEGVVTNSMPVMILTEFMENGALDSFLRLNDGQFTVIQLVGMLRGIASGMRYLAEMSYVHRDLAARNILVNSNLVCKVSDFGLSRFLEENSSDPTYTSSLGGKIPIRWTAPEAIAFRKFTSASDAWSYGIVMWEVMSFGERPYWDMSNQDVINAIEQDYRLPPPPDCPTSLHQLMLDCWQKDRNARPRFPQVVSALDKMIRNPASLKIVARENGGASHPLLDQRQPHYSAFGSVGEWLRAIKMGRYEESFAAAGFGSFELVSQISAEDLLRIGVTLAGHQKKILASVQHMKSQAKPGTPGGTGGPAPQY
# [5] = biological target: Ribosomal protein S6 kinase beta-1 (Homo sapiens) (UniProt P23443); assay: Inhibition of p70S6K at 10 uM by colorimetric analysis
# [6] = biological target: T3, Inhibitor of nuclear factor kappa-B kinase subunit beta (Homo sapiens) (UniProt O14920); assay: Inhibition of IKK-beta at 10 uM by colorimetric analysis
# T3 sequence (whole entry): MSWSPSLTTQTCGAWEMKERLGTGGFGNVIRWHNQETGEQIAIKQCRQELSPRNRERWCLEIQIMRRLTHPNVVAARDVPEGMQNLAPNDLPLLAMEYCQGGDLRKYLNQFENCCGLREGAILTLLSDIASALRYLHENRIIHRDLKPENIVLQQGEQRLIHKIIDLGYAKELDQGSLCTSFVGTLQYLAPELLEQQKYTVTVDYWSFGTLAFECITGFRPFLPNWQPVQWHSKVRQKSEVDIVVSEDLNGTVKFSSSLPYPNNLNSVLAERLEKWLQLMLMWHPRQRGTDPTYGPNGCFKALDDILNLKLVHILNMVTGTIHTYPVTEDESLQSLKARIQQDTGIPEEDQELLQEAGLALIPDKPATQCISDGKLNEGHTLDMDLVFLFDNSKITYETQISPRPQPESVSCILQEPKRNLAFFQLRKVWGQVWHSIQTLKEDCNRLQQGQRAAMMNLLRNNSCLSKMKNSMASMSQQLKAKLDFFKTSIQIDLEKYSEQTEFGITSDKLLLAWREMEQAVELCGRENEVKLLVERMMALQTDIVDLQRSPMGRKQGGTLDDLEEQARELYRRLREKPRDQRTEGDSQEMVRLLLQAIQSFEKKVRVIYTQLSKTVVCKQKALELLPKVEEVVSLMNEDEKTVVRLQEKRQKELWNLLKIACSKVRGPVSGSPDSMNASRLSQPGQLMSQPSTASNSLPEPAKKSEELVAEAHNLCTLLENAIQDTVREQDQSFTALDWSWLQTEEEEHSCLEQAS
# Protein-tyrosine kinase 2-beta (Homo sapiens), sequence (Q14289 whole entry, looked up): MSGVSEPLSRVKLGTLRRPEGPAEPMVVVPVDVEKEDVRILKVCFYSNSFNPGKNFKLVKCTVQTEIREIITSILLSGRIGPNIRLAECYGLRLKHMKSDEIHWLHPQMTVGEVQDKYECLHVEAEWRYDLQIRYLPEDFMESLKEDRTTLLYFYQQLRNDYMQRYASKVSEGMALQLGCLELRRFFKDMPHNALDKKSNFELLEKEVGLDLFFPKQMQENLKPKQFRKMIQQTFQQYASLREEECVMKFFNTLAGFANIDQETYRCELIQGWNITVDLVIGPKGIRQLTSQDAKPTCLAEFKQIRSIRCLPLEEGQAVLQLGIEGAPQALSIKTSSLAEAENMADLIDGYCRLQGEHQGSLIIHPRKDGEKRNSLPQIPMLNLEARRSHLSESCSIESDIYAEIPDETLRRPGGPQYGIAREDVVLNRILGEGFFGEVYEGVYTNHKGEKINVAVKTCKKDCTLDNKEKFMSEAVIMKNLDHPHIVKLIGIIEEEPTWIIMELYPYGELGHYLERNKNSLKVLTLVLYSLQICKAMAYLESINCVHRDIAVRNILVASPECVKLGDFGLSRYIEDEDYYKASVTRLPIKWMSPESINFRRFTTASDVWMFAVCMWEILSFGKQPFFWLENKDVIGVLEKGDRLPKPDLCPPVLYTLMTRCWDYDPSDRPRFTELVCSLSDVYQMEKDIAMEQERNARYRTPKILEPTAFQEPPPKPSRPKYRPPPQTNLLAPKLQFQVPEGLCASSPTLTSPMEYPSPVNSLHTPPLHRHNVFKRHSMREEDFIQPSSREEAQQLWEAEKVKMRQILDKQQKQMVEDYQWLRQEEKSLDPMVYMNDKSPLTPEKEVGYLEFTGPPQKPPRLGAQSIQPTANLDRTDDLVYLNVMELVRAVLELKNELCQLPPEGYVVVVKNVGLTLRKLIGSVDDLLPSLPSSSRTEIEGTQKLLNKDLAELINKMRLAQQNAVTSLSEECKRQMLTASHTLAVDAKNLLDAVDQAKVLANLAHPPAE
# Tyrosine-protein kinase CSK (Homo sapiens), sequence (P41240 2-450 limits assumed): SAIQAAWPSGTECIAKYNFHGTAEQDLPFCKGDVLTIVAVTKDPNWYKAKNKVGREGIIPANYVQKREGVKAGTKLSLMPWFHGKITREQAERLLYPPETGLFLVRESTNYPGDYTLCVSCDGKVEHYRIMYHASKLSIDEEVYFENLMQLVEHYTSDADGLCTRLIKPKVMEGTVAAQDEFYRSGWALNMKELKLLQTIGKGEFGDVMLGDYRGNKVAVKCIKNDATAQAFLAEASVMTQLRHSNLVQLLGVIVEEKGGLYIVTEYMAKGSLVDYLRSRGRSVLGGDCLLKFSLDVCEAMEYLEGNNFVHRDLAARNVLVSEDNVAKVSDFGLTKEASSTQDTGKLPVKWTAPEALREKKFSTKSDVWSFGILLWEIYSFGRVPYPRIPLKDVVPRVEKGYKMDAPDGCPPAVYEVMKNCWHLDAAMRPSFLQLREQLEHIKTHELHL
# Ribosomal protein S6 kinase beta-1 (Homo sapiens), sequence (P23443 whole entry, looked up): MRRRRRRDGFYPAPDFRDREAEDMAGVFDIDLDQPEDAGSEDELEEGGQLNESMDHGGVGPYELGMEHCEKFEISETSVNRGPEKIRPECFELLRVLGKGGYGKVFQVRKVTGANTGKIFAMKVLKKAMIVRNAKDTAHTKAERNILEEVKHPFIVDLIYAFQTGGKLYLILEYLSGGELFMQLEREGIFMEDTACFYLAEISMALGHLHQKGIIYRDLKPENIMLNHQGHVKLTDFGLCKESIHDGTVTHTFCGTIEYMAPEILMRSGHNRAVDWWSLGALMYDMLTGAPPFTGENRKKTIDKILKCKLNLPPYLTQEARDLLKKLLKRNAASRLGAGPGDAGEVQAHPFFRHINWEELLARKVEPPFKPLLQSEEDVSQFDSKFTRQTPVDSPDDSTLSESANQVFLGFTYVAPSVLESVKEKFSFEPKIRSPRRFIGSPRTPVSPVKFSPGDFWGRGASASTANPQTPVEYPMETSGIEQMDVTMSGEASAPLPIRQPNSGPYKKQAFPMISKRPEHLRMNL
Structure (SMILES),inhibition [1],inhibition [2],inhibition [3],inhibition [4],inhibition [5],inhibition [6]
Clc1ccc(-n2cc(-c3ccncc3)nn2)cc1,inactive,inactive,inactive,inactive,Active,Active
Clc1cccc(-n2cc(-c3ccncc3)nn2)c1,inactive,inactive,inactive,inactive,Active,Active
Clc1ccc(-n2nncc2-c2ccncc2)cc1,inactive,inactive,inactive,inactive,Active,Active
Clc1cccc(-n2nncc2-c2ccncc2)c1,inactive,inactive,inactive,inactive,Active,Active
